This note sets out measurements from ChEMBL document CHEMBL4613233, “Discovery of 2-((4-resorcinolyl)-5-aryl-1,2,3-triazol-1-yl)acetates as potent Hsp90 inhibitors with selectivity over TRAP1” (Bioorg Med Chem Lett, 2020).

In assay [1] the target is Heat shock protein HSP 90-alpha (Homo sapiens, UniProt P07900).
Description: Inhibition of recombinant HSP90alpha (unknown origin) incubated for 24 hrs in presence of 1-FITC3 probe by fluorescence polarization assay
For assay [2], the target named is T1, Heat shock protein 75 kDa, mitochondrial (Homo sapiens, UniProt Q12931).
T1 sequence (Q12931 whole entry): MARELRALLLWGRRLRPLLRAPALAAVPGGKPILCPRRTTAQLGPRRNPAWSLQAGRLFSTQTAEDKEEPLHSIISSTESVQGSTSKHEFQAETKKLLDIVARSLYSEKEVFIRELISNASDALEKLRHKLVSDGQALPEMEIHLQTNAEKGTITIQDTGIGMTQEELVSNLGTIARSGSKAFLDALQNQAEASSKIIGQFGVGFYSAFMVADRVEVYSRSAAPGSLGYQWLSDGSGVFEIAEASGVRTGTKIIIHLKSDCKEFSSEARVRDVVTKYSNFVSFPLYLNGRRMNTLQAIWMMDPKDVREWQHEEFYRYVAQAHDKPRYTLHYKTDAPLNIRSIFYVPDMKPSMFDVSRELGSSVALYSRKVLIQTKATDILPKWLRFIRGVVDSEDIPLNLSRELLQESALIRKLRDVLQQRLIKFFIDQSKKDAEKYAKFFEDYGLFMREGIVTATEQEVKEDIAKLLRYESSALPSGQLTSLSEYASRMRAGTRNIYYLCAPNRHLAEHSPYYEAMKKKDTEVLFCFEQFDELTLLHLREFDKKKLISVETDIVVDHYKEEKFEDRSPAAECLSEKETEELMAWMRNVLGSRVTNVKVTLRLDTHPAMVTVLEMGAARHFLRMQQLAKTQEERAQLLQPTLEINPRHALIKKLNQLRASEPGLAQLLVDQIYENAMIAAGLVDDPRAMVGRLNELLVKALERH
Description: Inhibition of TRAP1 (unknown origin).

For another assay, the target named is Endoplasmin (Homo sapiens, UniProt P14625). As to the kind of experiment: Inhibition of GRP94 (unknown origin).
The next assay concerns HeLa. Description: Antiproliferative activity against human HeLa cells by MTT assay. The class given is functional, cell-based.
The subject of a further assay is PC-3. Description: Antiproliferative activity against human PC3 cells by MTT assay. The class given is functional, cell-based.

Where only a bound is given, the exact number is not on record here.

Chain of Endoplasmin (P14625 whole entry): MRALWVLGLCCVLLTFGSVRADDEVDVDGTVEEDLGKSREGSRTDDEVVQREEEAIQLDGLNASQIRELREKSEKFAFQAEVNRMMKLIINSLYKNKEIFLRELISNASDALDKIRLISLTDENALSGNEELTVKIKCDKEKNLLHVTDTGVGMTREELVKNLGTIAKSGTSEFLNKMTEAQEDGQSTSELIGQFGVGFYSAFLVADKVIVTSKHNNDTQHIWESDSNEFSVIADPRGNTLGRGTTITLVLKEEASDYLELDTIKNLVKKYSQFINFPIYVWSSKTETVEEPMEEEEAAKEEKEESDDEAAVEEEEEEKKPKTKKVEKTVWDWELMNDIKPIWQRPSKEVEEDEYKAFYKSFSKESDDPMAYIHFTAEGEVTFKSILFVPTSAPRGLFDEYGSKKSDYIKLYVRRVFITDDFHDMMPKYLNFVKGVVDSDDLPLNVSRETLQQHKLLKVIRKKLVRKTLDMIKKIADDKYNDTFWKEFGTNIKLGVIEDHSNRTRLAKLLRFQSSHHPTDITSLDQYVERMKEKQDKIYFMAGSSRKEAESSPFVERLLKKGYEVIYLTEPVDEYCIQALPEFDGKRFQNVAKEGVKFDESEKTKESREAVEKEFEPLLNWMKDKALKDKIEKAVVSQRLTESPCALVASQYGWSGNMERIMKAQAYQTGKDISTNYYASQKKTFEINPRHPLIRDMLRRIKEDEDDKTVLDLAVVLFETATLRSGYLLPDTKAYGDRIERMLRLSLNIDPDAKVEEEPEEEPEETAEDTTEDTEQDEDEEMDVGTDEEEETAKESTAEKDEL

On to `CC(C)c1cc(-c2nn[nH]c2-c2ccc(S(C)(=O)=O)cc2)c(O)cc1O`, for which half-maximal inhibition in assay [1] (IC50) required 166 nM.

As for `CC(C)c1cc(-c2nn[nH]c2-c2ccc3c(c2)OCCO3)c(O)cc1O`, in assay [1], the IC50 was 169 nM.

`CC(C)c1cc(-c2nnn(CC(N)=O)c2-c2ccc(S(C)(=O)=O)cc2)c(O)cc1O` gave an IC50 in assay [1] of 136 nM.

In assay [1], `CC(C)c1cc(-c2nnn(CC(=O)O)c2-c2ccc(S(C)(=O)=O)cc2)c(O)cc1O` displayed an IC50 of 187 nM.

For the compound `CCOC(=O)Cn1nnc(-c2cc(C(C)C)c(O)cc2O)c1-c1cccc(S(C)(=O)=O)c1`, the IC50 stood at 35100 nM in assay [2], 96.2 nM at Endoplasmin and 53.1 nM in assay [1].

Consider `COC(=O)Cn1nnc(-c2cc(C(C)C)c(O)cc2O)c1-c1ccc2c(c1)OCCO2`, for which the IC50 worked out at 11900 nM in assay [2]; 78 nM on Endoplasmin; 500 nM in the assay with HeLa; 234 nM in the assay with PC-3; 47.8 nM in assay [1].

As to `CCOC(=O)Cn1nnc(-c2cc(CC)c(O)cc2O)c1-c1ccc(CN2CCOCC2)cc1`, the concentration for half-maximal inhibition (IC50) in assay [1] turned out to be 178 nM.

Compound `CCc1cc(-c2nnn(CC(=O)OC)c2-c2ccc3c(c2)OCCO3)c(O)cc1O` came in with an IC50 in assay [1] of 173 nM.

Turning to `COC(=O)Cn1nnc(-c2cc(C(C)C)c(O)cc2O)c1-c1ccc(CN2CCOCC2)cc1`, the IC50 was 24500 nM in assay [2], 197 nM on Endoplasmin and 91 nM in assay [1].

For the compound `COC(=O)Cn1nnc(-c2cc(C(C)C)c(O)cc2O)c1-c1cccc(NS(C)(=O)=O)c1`, the results for the IC50 (in assay [2]; against Endoplasmin; in assay [1]) were 24500 nM, 190 nM and 78.3 nM, respectively.

As to `CCc1cc(-c2nnn(CC(=O)OC)c2-c2cccc(NS(C)(=O)=O)c2)c(O)cc1O`, inhibition in assay [1] was half-maximal at 184 nM (IC50).

For `COC(=O)Cn1nnc(-c2cc(C(C)C)c(O)cc2O)c1-c1ccc(S(C)(=O)=O)cc1`, the IC50 is 16000 nM in assay [2]; 89 nM at Endoplasmin; more than 2000 nM in the assay with HeLa; 460 nM in the assay with PC-3; 43.3 nM in assay [1].

`CCc1cc(-c2nnn(CC(=O)OC)c2-c2cccc(S(C)(=O)=O)c2)c(O)cc1O`: the IC50 in assay [1] is 154 nM.

With `CCOC(=O)Cn1nnc(-c2cc(C(C)C)c(O)cc2O)c1-c1ccc2c(c1)OCCO2`, the IC50 in assay [2] came out at 25400 nM; against Endoplasmin, 192 nM; in assay [1], 60.9 nM.

Regarding `CC(C)c1cc(-c2nnn(Cc3ccccc3)c2-c2ccc(S(C)(=O)=O)cc2)c(O)cc1O`, the IC50 in assay [2] is 8480 nM; on Endoplasmin it was 78 nM; in the assay with HeLa, 206 nM; in the assay on PC-3, 286 nM; in assay [1], 45.7 nM.

`CC(C)c1cc(-c2nnn(CC(=O)O)c2-c2cccc(S(C)(=O)=O)c2)c(O)cc1O` showed an IC50 in assay [1] of 173 nM.

For `CC(C)c1cc(-c2nnn(CC(N)=O)c2-c2ccc3c(c2)OCCO3)c(O)cc1O`, half-maximal inhibition in assay [1] (IC50) was put at 134 nM.

`CC(C)c1cc(-c2nnn(CC(=O)O)c2-c2cccc(NS(C)(=O)=O)c2)c(O)cc1O` yielded an IC50 in assay [1] of 767 nM.

Take `CCc1cc(-c2nnn(CC(N)=O)c2-c2ccc(S(C)(=O)=O)cc2)c(O)cc1O`: it took 470 nM to reach half-maximal inhibition in assay [1] (IC50).

For `CC(C)c1cc(-c2nn[nH]c2-c2ccccc2)c(O)cc1O`, in assay [1], the IC50 stood at 296 nM.

Turning to `COC(=O)Cn1nnc(-c2cc(C(C)C)c(O)cc2O)c1-c1ccc(O)c(O)c1`, the IC50 in assay [1] was determined as 153 nM. This IC50 lies about 1.9-fold lower than the previous one.

Take `CCOC(=O)Cn1nnc(-c2cc(CC)c(O)cc2O)c1-c1ccc(S(C)(=O)=O)cc1`: in assay [1], the IC50 came to 304 nM.

As for `COC(=O)Cn1nnc(-c2cc(C(C)C)c(O)cc2O)c1-c1cccc(S(C)(=O)=O)c1`, the IC50 in assay [2] is 17400 nM; on Endoplasmin, 54.1 nM; in the assay on HeLa, more than 2000 nM; with PC-3 it was 569 nM; in assay [1], 43.1 nM.

`CCOC(=O)Cn1nnc(-c2cc(CC)c(O)cc2O)c1-c1cccc(S(C)(=O)=O)c1`: the IC50 in assay [1] came to 161 nM.

`COC(=O)Cn1nnc(-c2cc(C(C)C)c(O)cc2O)c1-c1ccc(CN2CCCCC2)cc1`: the IC50 was 6980 nM in assay [2], 49.4 nM against Endoplasmin and 57 nM in assay [1].

As for `COC(=O)Cn1nnc(-c2cc(C(C)C)c(O)cc2O)c1-c1ccc(OCCN(C)C)cc1`, the values for the IC50 (in assay [2]; against Endoplasmin; in assay [1]) were 14100 nM, 175 nM and 71.2 nM, respectively.

`CCOC(=O)Cn1nnc(-c2cc(C(C)C)c(O)cc2O)c1-c1ccc(S(C)(=O)=O)cc1`: the IC50 is 16000 nM in assay [2]; 100 nM on Endoplasmin; 402 nM in the assay with HeLa; 324 nM with PC-3; 41.8 nM in assay [1].

Regarding `CCc1cc(-c2nnn(CC(=O)OC)c2-c2ccc(S(C)(=O)=O)cc2)c(O)cc1O`, the IC50 in assay [1] was found to be 214 nM. This counts as sub-micromolar.

As to `CC(C)c1cc(-c2nnn(CC(=O)O)c2-c2ccc3c(c2)OCCO3)c(O)cc1O`, in assay [1], 176 nM corresponded to half-maximal inhibition (IC50).

`CCOC(=O)Cn1nnc(-c2cc(C(C)C)c(O)cc2O)c1-c1cccc(NS(C)(=O)=O)c1`: the values for the IC50 (in assay [2]; against Endoplasmin; in assay [1]) were 33200 nM, 209 nM and 77 nM, respectively.

Turning to `CC(C)c1cc(-c2n[nH]c(=O)n2-c2ccc3c(ccn3C)c2)c(O)cc1O` [GANETESPIB], the results for the IC50 against Endoplasmin, with HeLa and in the assay with PC-3 were 37.7 nM, 11.7 nM and 9.3 nM, respectively.

`CC(C)NCCCn1c(Sc2cc3c(cc2I)OCO3)nc2c(N)ncnc21` [PU-H71]: the IC50 in the assay with HeLa was 226 nM; in the assay with PC-3 it was 363 nM.
